Measurements taken from the NIST ThermoML archive (doi:10.1016/j.jct.2005.10.013).
± gives the expanded uncertainty stated by the source.

Assay: mn = molality of the nth substance listed, in mol/kg
Conditions: 101 kPa, Liquid, Sing-around technique in a fixed-path interferometer

CN(CCO)CCO [N-methyldiethanolamine] + O
speed of sound [m/s]
Conditions | m1 = 0.3067 | m1 = 0.5017 | m1 = 0.7035 | m1 = 0.8982 | m1 = 1.088 | m1 = 1.357 | m1 = 1.652 | m1 = 2.161
283.15 K | 1474.2 ± 0.99 | 1489.7 ± 1 | 1505.1 ± 1 | 1519.3 ± 1 | 1532.8 ± 1 | 1550.9 ± 1 | 1569.5 ± 1.1 | 1598.7 ± 1.1
298.15 K | 1520 ± 0.99 | 1532.9 ± 1 | 1545.8 ± 1 | 1557.6 ± 1 | 1568.7 ± 1 | 1583.6 ± 1 | 1598.9 ± 1.1 | 1622.6 ± 1.1
313.15 K | 1547.7 ± 0.99 | 1557.7 ± 1 | 1567.7 ± 1 | 1576.9 ± 1 | 1585.5 ± 1 | 1597 ± 1 | 1608.8 ± 1.1 | 1626.9 ± 1.1
